This note sets out measurements from paper PMC10564737, “Structure-based design of a phosphotyrosine-masked covalent ligand targeting the E3 ligase SOCS2” (Nature Communications, 2023).

“Also recorded” adds a separate entry of the source.

The target in one data set is T1, SOCS2 (SBC2) (Homo sapiens, UniProt O14508).
T1 construct: SOCS2 (amino acids 32–198); His6 (N, cleaved yes); made in house; host or cells: E. coli BL21(DE3)
Kind of data set: Intact ESI-MS of recombinant protein, covalent modification. The class given is biochemical. The settings on record: SOCS2 WT + MN551 (1:1, 40 µM).

Data set [1] deals with T2, SOCS2 C111S mutant (SBC2 C111S) (Homo sapiens, UniProt O14508, C111S).
T2 construct: SOCS2 (amino acids 32–198); His6 (N, cleaved yes); made in house; host or cells: E. coli BL21(DE3)
T2 sequence (Q15370 1-104): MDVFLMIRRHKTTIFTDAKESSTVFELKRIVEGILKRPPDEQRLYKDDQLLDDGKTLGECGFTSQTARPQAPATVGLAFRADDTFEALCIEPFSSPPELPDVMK
T2 sequence (Q15369 17-112, further chain): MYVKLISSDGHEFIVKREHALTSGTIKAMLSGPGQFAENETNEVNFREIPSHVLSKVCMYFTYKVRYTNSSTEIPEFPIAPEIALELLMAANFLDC
T2 sequence (O14508 32-198 C111S): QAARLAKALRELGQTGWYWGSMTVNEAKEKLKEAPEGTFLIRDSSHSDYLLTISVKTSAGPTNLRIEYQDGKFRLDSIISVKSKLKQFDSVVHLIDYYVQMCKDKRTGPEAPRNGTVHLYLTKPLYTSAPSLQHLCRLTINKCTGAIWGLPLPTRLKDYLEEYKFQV
The description is as above. It is filed as biochemical. Conditions: for % modified: SOCS2 C111S + MN551 (1:1, 50 µM). How it is done:
[…] At defined time points 20 µl samples were removed and the protein precipitated by the addition of 80 µl methanol. The precipitated protein was pelleted by centrifugation, washed with 500 µl methanol, and resuspended in an aqueous solution of 15% acetonitrile and 1% TFA. Samples were separated by HPLC on a C3 column using a 10–75% gradient of acetonitrile and analyzed using an Agilent 6130 quadrupole MS. Spectra were deconvoluted and integrated using Agilent LC/MSD ChemStation.

In data set [2] the target is T3, SBC2 (Homo sapiens, UniProt O14508).
T3 construct: SOCS2 (amino acids 32–198); His6 (N, cleaved yes); made in house; host or cells: E. coli BL21(DE3)
T3 sequence (O14508 32-198): as the sequence (O14508 32-198 C111S) above, with S80C counted along it
T3 sequence (Q15370 1-104 partner limits assumed): as the sequence (Q15370 1-104) above
T3 sequence (Q15369 17-112 partner limits assumed): as the sequence (Q15369 17-112, further chain) above
Kind of data set: Differential scanning fluorimetry (DSF). The class given is binding. The settings on record: 5 µM SBC2 + 100 µM MN551. How it is done: DSF experiments were performed on a Biorad CFX96 RT-PCR machine. […] of SBC2 were incubated with […] MN551 (2 % DMSO) or DMSO control in 50 mM Tris, pH 8.0, 50 mM NaCl and 6.6 × SYPRO Orange. The temperature was ramped up in 1 °C steps between 25 and 95 °C with 30 s incubation at each step. Melting curves were analyzed by determining the minimum of the first derivative using the Biorad CFX Manager software.
On the technique in general: DSF heats the sample and reads unfolding from a dye or from intrinsic fluorescence.

Data set [3] addresses T3, SBC2. Kind of data set: Isothermal titration calorimetry (ITC), direct titration. It is filed as binding. How it is done: Experiments were performed with ITC200 instrument (Malvern) in 100 mM HEPES pH 7.5, 50 mM NaCl, 0.5 mM TCEP at 298 K. The ITC titration consisted of 0.4 μl initial injection (discarded during data analysis) followed by 19 of 2 μl injections at 120 s interval between injections. 1 mM of the ligands in 2–4% DMSO were titrated into 100 μM SBC2. […] Binding data was subtracted from a control titration where ligand was titrated into buffer, and fitted using a one-set-of-site binding model to obtain dissociation constant (Kd), binding enthalpy (ΔH), and stoichiometry (N) using MicroCal PEAQ-ITC Analysis Software1.1.0.1262 and MicroCal ITC-ORIGIN Analysis Software 7.0 (Malvern).
(In general: In ITC the heat of successive injections is recorded.)

For the next data set, the system named is K562 cells. Kind of data set: In-cell time-resolved 19F-NMR of prodrug unmasking. The settings on record: K562 cell suspension, 500 µM, 37 °C. It is filed as in vitro ADME. An excerpt:
(§1) Although, with the live-cell CETSA setup we could rank the prodrugs for overall potency, we cannot decouple the individual contributions of cellular permeability and prodrug unmasking rate. To understand the rate of unmasking inside the live cells, we developed an in-cell time-resolved ^19F-NMR to monitor the rate of POM group unmasking (Fig. 5). ^19F-NMR is uniquely suited for this task due to the high receptivity of ^19F, low background in biological samples, and remarkable sensitivity of ^19F chemical shifts to their chemical environment[43],[44]. The latter means that even the distant fluorine of MN551 could act as a reporter for the presence of the masking group on the phosphotyrosine moiety. […] While the downfield peak starts off with higher intensity, it loses intensity quickly and within an hour is overtaken by the growing upfield peak. Within 3 h the downfield peak completely disappears and only the upfield peak is observed. […]
(§2) K562 cells were maintained in IMDM media supplemented with 10% FBS. […] To confirm the identity of the observed species, the lysate was sequentially spiked with 500 µM MN551 and prodrug and measured again. […] All spectra were processed and analyzed using Topspin 4.1.1.

The nature of data set [4]: In-cell time-resolved 19F-NMR of prodrug unmasking. It is filed as in vitro ADME. Conditions: human, K562 cell suspension (65% v/v cell content), 37 °C, read-out: half-life time of prodrug unmasking in cells.
Description: as §1, §2

T1 sequence (O14508 32-198): as the sequence (O14508 32-198 C111S) above, with S80C counted along it
T1 sequence (Q15369 17-112, further chain): as the sequence (Q15369 17-112, further chain) above
T1 sequence (Q15370 1-104, further chain): as the sequence (Q15370 1-104) above

As to `O=C(CCl)Nc1cccc(CNC(=O)[C@H](Cc2ccc(OP(=O)(O)O)cc2)NC(=O)Cc2ccc(F)cc2)c1` [MN551], the “% modified” value at SOCS2 (SBC2) (t = 0 min) is given as 0.0%; on SOCS2 (SBC2) (t = 5 min), 12.6%; at SOCS2 (SBC2) (t = 10 min) it was 18.9%; on SOCS2 (SBC2) (t = 20 min), 41.4%; at SOCS2 (SBC2) (t = 40 min), 73.7%; on SOCS2 (SBC2) (t = 60 min) it was 88.0%. For the same molecule, the “% modified” value at SOCS2 (SBC2) (t = 90 min) is listed as 100.0%; at SOCS2 (SBC2) (t = 120 min), 100.0%; in data set [1] (t = 0 min), 0.0%; in data set [1] (t = 5 min) it was 0.0%; in data set [1] (t = 10 min) it was 0.0%; in data set [1] (t = 20 min), 0.0%. The “% modified” value in data set [1] (t = 40 min), in data set [1] (t = 60 min), in data set [1] (t = 90 min) and in data set [1] (t = 120 min) was 0.0% throughout. Moreover, the “covalent reactivity with C111S mutant” value in data set [1] is reported as “no reactivity; also recorded: does not covalently react”. Also, the “ΔTm, shift in the melting temperature of SBC2” value on SBC2 [2] stood at 6 °C. For the same molecule, the Ki – broadly, a dissociation constant, usually derived from enzyme kinetics or from competition with a known ligand – at SBC2 [3] is 2.2 µM. Further, at SBC2 [3] (ITC KD, direct ITC, 298 K), binding was characterised by a dissociation constant (Kd) of 2.18 ± 0.6 µM.
As to `CC(C)(C)C(=O)OCOP(=O)(OCOC(=O)C(C)(C)C)Oc1ccc(C[C@H](NC(=O)Cc2ccc(F)cc2)C(=O)NCc2cccc(NC(=O)CCl)c2)cc1` [MN714], the “time to complete disappearance of the prodrug (downfield) peak” value in the data set on K562 cells is listed as at most 3 h. Besides, the half-life (usually the time in which the quantity being followed falls by half) at 500 µM in data set [4] fell in the range of 1 to 1.5 h.
